Experimental data reported in patent US7037909B2, “Tetracyclic compounds as c-Met inhibitors” (Sugen, Inc., priority 2003, dated 2006).

molecular target: T1, c-MET (Homo sapiens, UniProt P08581); assay: MET Transphosphorylation Assay (ELISA, poly(Glu,Tyr) 4:1 substrate); type: biochemical; settings: not given
T1 construct: Purified GST fusion protein containing the Met kinase domain, Sugen, Inc
Experimental: MET Transphosphorylation Assay
This assay is used to measure phosphotyrosine levels on a poly(glutamic acid:tyrosine (4:1)) substrate as a means for identifying agonists/antagonists of met transphosphorylation of the substrate.
• 1. […] PBS, Gibco Catalog #450-1300EB • 4. 50 mM HEPES • 5. […] Purified GST fusion protein containing the Met kinase domain, Sugen, Inc. • 7. TBST Buffer. • 8. 10% aqueous (MilliQue H2O) DMSO. • 9. […] 2× Kinase Dilution Buffer: for 100 ml, mix 10 mL 1M HEPES at pH 7.5 with 0.4 mL 5% BSA/PBS, 0.2 mL 0.1M sodium orthovanadate and 1 mL 5M sodium chloride in 88.4 mL dH2O. • 11. 4× ATP Reaction Mixture: for 10 mL, mix 0.4 mL 1M manganese chloride and 0.02 mL 0.1M ATP in 9.56 mL dH2O. • 12. 4× Negative Controls Mixture: for 10 mL, mix 0.4 mL 1M manganese chloride in 9.6 mL dH2O. • 13. […] 500 mM EDTA. • 15. Antibody Dilution Buffer: for 100 mL, mix 10 mL 5% BSA/PBS, 0.5 mL 5% Carnation Instant Milk® in PBS and 0.1 mL 0.1M sodium orthovanadate in 88.4 mL TBST. • 16. Rabbit polyclonal antophosphotyrosine antibody, Sugen, Inc. • 17. Goat anti-rabbit horseradish peroxidase conjugated antibody, Biosource, Inc. • 18. ABTS Solution: for 1 L, mix 19.21 g citric acid, 35.49 g Na2HPO4 and 500 mg ABTS with sufficient dH2O to make 1 L. • 19. ABTS/H2O2: mix 15 mL ABST solution with 2 μL H2O2 five minutes before use. • 20. 0.2M HCl Procedure: • 1. Coat ELISA plates with 2 μg Poly(Glu-Tyr) in 100 μL PBS, store overnight at 4° C. • 2. Block plate with 150 μL of 5% BSA/PBS for 60 min. • 3. Wash plate twice with PBS, once with 50 mM Hepes buffer pH 7.4. • 4. Add 50 μl of the diluted kinase to all wells. (Purified kinase is diluted with Kinase Dilution Buffer. Final concentration should be 10 ng/well.) • 5. Add 25 μL of the test compound (in 4% DMSO) or DMSO alone (4% in dH2O) for controls to plate. • 6. Incubate the kinase/compound mixture for 15 minutes. • 7. Add 25 μL of 40 mM MnCl2 to the negative control wells. • 8. Add 25 μL ATP/MnCl2 mixture to the all other wells (except the negative controls). Incubate for 5 min. • 9. Add 25 μL 500 mM EDTA to stop reaction. • 10. Wash plate 3× with TBST. • 11. Add 100 μL rabbit polyclonal anti-Ptyr diluted 1:10,000 in Antibody Dilution Buffer to each well. Incubate, with shaking, at room temperature for one hour. • 12. Wash plate 3× with TBST. • 13. Dilute Biosource HRP conjugated anti-rabbit antibody 1: 6,000 in Antibody Dilution buffer. Add 100 μL per well and incubate at room temperature, with shaking, for one hour. • 14. Wash plate 1× with PBS. • 15. Add 100 μl of ABTS/H2O2 solution to each well. • 16. If necessary, stop the development reaction with the addition of 100 μl of 0.2M HCl per well. • 17. […]

T1 sequence (P08581 1078-1345 limits assumed): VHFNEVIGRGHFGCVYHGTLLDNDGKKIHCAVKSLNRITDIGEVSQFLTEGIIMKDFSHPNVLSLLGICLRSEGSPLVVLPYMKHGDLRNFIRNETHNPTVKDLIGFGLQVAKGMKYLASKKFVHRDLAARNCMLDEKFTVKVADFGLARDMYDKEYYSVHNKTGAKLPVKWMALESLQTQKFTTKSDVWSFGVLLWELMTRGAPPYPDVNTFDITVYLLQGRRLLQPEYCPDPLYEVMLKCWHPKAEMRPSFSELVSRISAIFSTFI

IC50 | Compound
12 nM | COc1ccc2[nH]c3nc4nnc(Cc5ccc(O)cc5)n4nc3c2c1Cl [Example 19, 4-(5-Chloro-6-methoxy-9H-1,2,3a,4,9,10-hexaaza-cyclopenta[b]fluoren-3-ylmethyl)-phenol]

same assay, conditions: purified GST fusion protein containing the Met kinase domain; poly(glu, tyr) 4:1 substrate; read-out: c-MET IC50

IC50 | Compound
18 nM | Oc1ccc(Cc2nnc3nc4[nH]c5ccccc5c4nn23)cc1 [Example 17, 4-(9H-1,2,3a,4,9,10-Hexaaza-cyclopenta[b]fluoren-3-ylmethyl)-phenol]
36 nM | Oc1ccc(Cc2nnc3nc4[nH]c5c(Cl)ccc(Cl)c5c4nn23)cc1 [Example 18, 4-(5,8-Dichloro-9H-1,2,3a,4,9,10-hexaaza-cyclopenta[b]fluoren-3-ylmethyl)-phenol]
46 nM | COc1cc(Cl)c2[nH]c3nc4nnc(Cc5ccc(O)cc5)n4nc3c2c1Cl [Example 20, 4-(5,8-Dichloro-6-methoxy-9H-1,2,3a,4,9,10-hexaaza-cyclopenta[b]fluoren-3-ylmethyl)-phenol]
10 nM | Oc1ccc(Cc2nnc3nc4[nH]c5cccc(Cl)c5c4nn23)cc1 [Example 21, 4-(5-Chloro-9H-1,2,3a,4,9,10-hexaaza-cyclopenta[b]fluoren-3-ylmethyl)-phenol]
35 nM | Oc1ccc(Cc2nnc3nc4[nH]c5c(Cl)cccc5c4nn23)cc1 [Example 22, 4-(8-Chloro-9H-1,2,3a,4,9,10-hexaaza-cyclopenta[b]fluoren-3-ylmethyl)-phenol]
460 nM | Oc1ccc(Cc2nnc3nc4[nH]c5c(Cl)cc(Cl)c(Cl)c5c4nn23)cc1 [Example 23, 4-(5,6,8-Trichloro-9H-1,2,3a,4,9,10-hexaaza-cyclopenta[b]fluoren-3-ylmethyl)-phenol]
22 nM | Cc1ccc(C)c2c1[nH]c1nc3nnc(Cc4ccc(O)cc4)n3nc12 [Example 24, 4-(5,8-Dimethyl-9H-1,2,3a,4,9,10-hexaaza-cyclopenta[b]fluoren-3-ylmethyl)-phenol, dihydrate]
55 nM | Cc1cc(C)c2[nH]c3nc4nnc(Cc5ccc(O)cc5)n4nc3c2c1 [Example 25, 4-(6,8-Dimethyl-9H-1,2,3a,4,9,10-hexaaza-cyclopenta[b]fluoren-3-ylmethyl)-phenol]
25 nM | Cc1cc(Cl)cc2c1[nH]c1nc3nnc(Cc4ccc(O)cc4)n3nc12 [Example 26, 4-(6-Chloro-8-methyl-9H-1,2,3a,4,9,10-hexaaza-cyclopenta[b]fluoren-3-ylmethyl)-phenol]
42 nM | N[C@H]1CCN(C(=O)c2ccc3[nH]c4nc5nnc(Cc6ccc(F)cc6)n5nc4c3c2Cl)C1 [Example 34, [(3S)-3-Amino-pyrrolidin-1-yl]-[5-chloro-3-(4-fluoro-benzyl)-9H-1,2,3a,4,9,10-hexaaza-cyclopenta[b]fluoren-6-yl]-methanone]
28 nM | Cc1cc(OCCN2CCOCC2)c(C)c2c1[nH]c1nc3nnc(Cc4ccc(O)cc4)n3nc12 [Example 35, 4-[5,8-Dimethyl-6-(2-morpholin-4-yl-ethoxy)-9H-1,2,3a,4,9,10-hexaaza-cyclopenta[b]fluoren-3-ylmethyl]-phenol]
560 nM | Cc1cc(OCCN2CCOCC2)c(C)c2c1[nH]c1nc3nnc(Cc4ccc(F)cc4)n3nc12 [Example 36, 3-(4-Fluoro-benzyl)-5,8-dimethyl-6-(2-morpholin-4-yl-ethoxy)-9H-1,2,3a,4,9,10-hexaaza-cyclopenta[b]fluorine]
